Source: US11964943B2, “3,5-diarylidenyl-n-substituted-piperid-4-one-derived inhibitors of Stat3 pathway activity and uses thereof” (priority 2017, dated 2024)
Values joined by “and” are separate entries in the source; they are usually repeats but may differ in a detail not shown here. Equal entries are not always repeated.

Experiments:
[1] = test system: A2780-cisplatin resistant spheroids; experiment: Spheroid diameter measurement; assay type: cell-based; conditions: 96 h
Procedure: (§1) For cell spheroid formation, HCT116-oxaliplatin resistant cells, A2780-cisplatin resistant cells, and HT1080 cells were seeded in Corning® Spheroid opaque-walled 96 well Microplates (ultra-low attachment; Nuclon™ Sphera™, Thermofisher) at densities of 2000 cells/well in 100 μl of cell solution and allowed to grow for 4 days, before any manipulation.
The diameters of spheroid cells were determined using Cell^F Imaging Software. A diameter corresponds to the mean value of one horizontal and one vertical measurement.

[2] = test system: DU145 cells; experiment: SRB growth inhibition and combination index with cisplatin, DU145; assay type: cell-based
Procedure: (§2) The affected fractions were calculated from the SRB or MTT assay absorbance values and were registered to derive the respective CI values and isobolograms. A CI value of less than 1 (one) indicates synergy.
(§3) The SRB assay was used to assess cell growth inhibition by IE-8 alone and in combination with cisplatin. […] For combination studies drug treatments were sequential with IE-8 applied first followed by cisplatin for 1 h. […] Absorbance was read at 540 nm and results were normalized to untreated controls. For analysis of GC50 values and statistical significance, non-linear regression analysis with a comparison of fits was performed with the GraphPad Prism 6.0 software.
as §3, with “Drug Combination studies. Sulforhodamine B (SRB) Cell Growth Inhibition Assay. The” for “The”, “8 h” for “IE-8”

[3] = test system: A549 cells; experiment: SRB growth inhibition and combination index with cisplatin, A549; assay type: cell-based, human
Procedure: as §2, §3
as §3, with “Drug Combination studies. Sulforhodamine B (SRB) Cell Growth Inhibition Assay. The” for “The”, “8 h” for “IE-8”

[4] = test system: A2780-cisplatin resistant spheroids; experiment: CellTiter-Glo 3D cell viability assay, A2780-cisplatin resistant spheroids; assay type: cell-based; conditions: 96 h exposure, 3D CellTiter-Glo
Procedure: as §1
(§4) At the end of drug incubation, both the plates and the CellTitre-Glo® reagent (previously thawn overnight in the fridge) were equilibrated at room temperature for at least 30 min. Subsequently, 100 μl of cell solution were carefully removed from each well, without disrupting the spheroid and equal volume of CellTitre-Glo® reagent was added. Cell lysis was performed by vigorously shaking the plate for 5 min. To stabilize the luminescent signal, the plate was incubated in the dark at RT for another 30 min before luminescence was recorded on a plate reader. The cell viability of treated samples was normalised to the untreated controls.
(§5) The cytotoxicity studies in spheroids were conducted using the CellTiter-Glo® 3D Cell viability assay (Promega) following the instructions of the manufacturer.

[5] = test system: HCT116-oxaliplatin resistant spheroids; experiment: CellTiter-Glo 3D cell viability assay, HCT116-oxaliplatin resistant spheroids; assay type: cell-based; conditions: 96 h exposure, 3D CellTiter-Glo
Procedure: as §1
as §4, with “Spheroid cells were treated by adding 100 μl of 2-fold the desired compound concentration and incubated at 37° C. for 96 h. At” for “At”
as §5

[6] = test system: HCT116-oxaliplatin resistant cells; experiment: Colony formation assay with oxaliplatin; assay type: cell-based; conditions: 1 μM oxaliplatin alone, 10 days
Procedure: HCT116-oxaliplatin res cells were seeded at 2000 cells/well in 6-well plates and allowed to adhere overnight. The next day, oxaliplatin and IE-8 were added simultaneously. First, the specific amount of cells solution was removed from each well and afterwards the same volume of the appropriate drug dilution was added to achieve the right concentration. IE-8 was diluted in DMA. Cells were also treated with Oxaliplatin and IE-8 alone. The plates were left the incubator and the cells were allowed to grow colonies for 10 days. After 10 days the entire cell solution was removed from each well, which was subsequently washed with 500 μl of PBS. 1 ml of cold 100% methanol was added and the plates were incubated for 30 minutes at 4 C. After a second wash, the cells were stained with 1 ml of […] staining dye for 2-3 minutes, rinsed with water, allowed to dry overnight and the colonies were quantified using a gel imaging system (Fusion Fx7) and its in-built colony counter software.

[7] = test system: pStat3^Tyr705; experiment: Immunoblotting of phosphorylated Stat3 in cancer cells; assay type: cell-based, human; conditions: DU145 and A549 cells with constitutively active Stat3, 18 h
Procedure: (§6) Whole cell lysates were prepared by incubation of harvested, trypsinised cells with CelLytic™ lysis buffer (Sigma-Aldrich) supplemented with 1× protease and 1× phosphatase inhibitors (Roche). Protein quantification was carried out using a protein assay kit (Bio-Rad). 40 μg of the lysates were denatured by heating for 5 min at 95° C. in sample buffer containing 100 mM Tris-Cl (pH 6.8), 4% SDS, 10% 2-mercaptoethanol, 20% glycerol, and 0.02% bromophenol blue. Precision Plus Protein Dual colour standards (Bio-Rad) were used as a molecular weight reference. For the detection of STAT3, pSTAT3, α/β tubulin, cleaved PARP, Bcl-2, Bcl-xL, FANCD2, BRCA1, EME1 and MUS81, proteins were separated on a NuPAGE 7% Tris-acetate gel (Life Technologies) and subsequently transferred to polyvinylidene difluoride membranes (Immobilon®-P transfer membrane; Millipore). […] Membranes were blocked for 1 h at ambient temperature in a blocking buffer containing 5% w/v Bovine Serum Albumin (BSA; Sigma-Aldrich) in 1×TBS, 0.1% Tween-20. All proteins were identified by incubation in a 1:1000 dilution of the respective polyclonal antibodies (Cell signaling) in blocking buffer overnight at 4° C. and subsequent incubation for 1 h with an anti-rabbit or anti-mouse secondary antibody (Cell signalling) at a dilution of 1:1000. The α/β tubulin (1:2000; Cell Signaling) and the anti-phospho-histone H2AX Antibody (1:500; Millipore) were used in the denoted dilutions. Antibody binding was visualized by enhanced chemiluminescence (Amersham) on autoradiography film (Kodak-X-Omat). Alternatively Images were captured by the GelDoc-It Imaging System Fusion Fx7 (Vilber Lourmat, Germany).
as §6, with “Immunoblotting. Whole” for “Whole”, “CelLytic™ M” for “CelLytic™”, “pSTAT3, a/0” for “pSTAT3, α/β”, “in 1×TBS” for “in 1×TBS,”, “(Cell signalling)” for “(Cell signaling)”

[8] = cisplatin alone 1 h, 96 h total, SRB

## N.N.[Cl][Pt][Cl] [Cisplatin, reference compound]
[1]; cisplatin 1.75 μM
  Diameter (μm): 1071.4 μm
[1]; cisplatin 3.5 μM
  Diameter (μm): 1047.5 μm
[1]; cisplatin 5.25 μM
  Diameter (μm): 916.4 μm
[1]; cisplatin 7.0 μM
  Diameter (μm): 833.6 μm
[1]; cisplatin 7.0 μM, listed as cisplatin
  Diameter (μm): 834 μm
[1]; cisplatin 8.75 μM
  Diameter (μm): 713.0 μm
[2]; [8]
  IC50: 49.2 µM and 49.3 µM
[3]; [8]
  IC50: 77.8 µM and 64.6 µM

## O=C1C(O)=C([C@H]2CC[C@H](c3ccc(Cl)cc3)CC2)C(=O)c2ccccc21 [Atovaquone, reference compound]
[4]
  IC50: 24.4 ± 3.36 µM
[5]
  IC50: 16.5 µM

## O=C(O)C(=O)O.[NH-][C@@H]1CCCC[C@H]1[NH-].[Pt+2] [Oxaliplatin, reference compound]
[6]
  number of colonies: about 260

## CC1(C)C=C(CN2C/C(=C\c3ccc(F)cc3)C(=O)/C(=C/c3ccc(F)cc3)C2)C(C)(C)N1O [HO-3867, reference compound]
[4]
  IC50: 29.7 ± 7.81 µM
[5]
  IC50: 33 µM

## O=[N+]([O-])c1ccc2c(c1)S(=O)(=O)C=C2 [Stattic]
[4]
  IC50: 9.14 ± 2.74 µM
[2]; stattic:cisplatin ratio 1:5
  combination index analysis with cisplatin: lower levels of synergy within a narrower range of doses
[7]
  inhibition of Stat3 tyrosine (705) phosphorylation (pStat3): much higher doses are required
[3]; stattic:cisplatin ratio 1:5
  combination index analysis with cisplatin: lower levels of synergy
